Test results reported in PMC11887051, “Discovery of ONO-2920632 (VU6011887): A Highly Selective and CNS Penetrant TREK-2 (TWIK-Related K+ Channel 2) Preferring Activator In Vivo Tool Compound” (ACS Chemical Neuroscience, 2025).

Tests used:
[1] = rat plasma:brain level study (Kp, Kp,uu); format: in vivo; conditions: male, Sprague-Dawley, brain and plasma; for Kp at 2 h / Kp uu at 2 h: oral rat plasma:brain level study, 2 h after 3 mg/kg PO
Experimental: In vivo DMPK experimental:
Determination of brain to plasma ratio:
All animal study procedures were approved by the Institutional Animal Care and Use Committee and were conducted in accordance with the National Institutes of Health regulations of animal care covered in Principles of Laboratory Animal Care (National Institutes of Health). All rats were fasted overnight prior to testing. […]
At 15 min post dosing, blood sample was collected into chilled, K2EDTA anticoagulant-fortified tube and immediately placed on wet ice. The blood sample was then centrifuged (1700 rcf, 5 minutes, 4 °C) to obtain plasma sample. At the same post-administration time point, whole brain sample was obtained by rapid dissection, rinsed with PBS, and immediately frozen in individual tissue collection box (dry ice). All brain and plasma samples were stored at -80 °C until […]
Sample Analysis: Concentrations in plasma and brain homogenates were quantified by liquid chromatography tandem mass spectrometry (LC-MS/MS). Whole brains were homogenized in 3 mL of 70:30 IPA:water in a mini bead beater for 3 min, and centrifuged at 3,500 g for 5 min. 5 uL of the supernatant was diluted in 15 uL of blank plasma for quantification of the analytes. Plasma samples were centrifuged at 3,500 g for 5 min. A standard curve was generated by diluting the analytes DMSO stocks with blank plasma to obtain a final concentration of 10,000 ng/ml followed by a serial dilution down to 0.5 ng/ml. Quality controls were generated by a serial dilution of the 5,000 ng/ml standard curve solution in blank plasma to obtain 3 concentrations of 500, 50, and 5 ng/ml. 20 uL of brain diluted in plasma, plasma, blank plasma, standard curve and QC samples were loaded in a V-bottom 96-well plate. 120 uL of acetonitrile containing 0.05 uM carbamazepine (internal standard) was added to each well and the plate was centrifuged at 3,500 g for 5 min. 60 uL of the supernatant of each well (protein free) was transferred to a new 96-well plate containing 60 uL of water. The plates were sealed for analysis by LC-MS/MS.
Plasma and brain tissue samples originating from in vivo studies were analyzed by electrospray ionization using an AB Sciex Q-TRAP 5500 (Foster City, CA) that was coupled to a Shimadzu LC-20AD pump (Columbia, MD) and a Leap Technologies CTC PAL auto-sampler (Carrboro, NC). Analytes were separated by gradient elution using a C18 column (3 x 50 mm, 3 mm; Fortis Technologies Ltd, Cheshire, UK) that was thermostated at 40 °C. HPLC mobile phase A was 0.1% formic acid in water (pH unadjusted); mobile phase B was 0.1% formic acid in acetonitrile (pH […]
min, with an isocratic hold for 0.5 min, before transitioning to 10% B over 0.05 min. The column was re-equilibrated (1 min) before the next sample injection. The total run time was 2.55 min, and the HPLC flow rate was 0.5 ml/min. The source temperature was set at 500 °C, and mass spectral analyses were performed using a Turbo-Ion spray source in positive ionization mode (5.0-kV spray voltage) and using multiple-reaction monitoring of transitions specific for the analytes. All data were analyzed using AB Sciex Analyst 1.5.1 software.
Brain plasma concentration ratio (Kp) was calculated by dividing brain concentration by plasma concentration for each animal. Unbound brain to unbound plasma concentration ratio (Kp,uu) is calculated using the following formula: Kp,uu = (Brain ng/g x brain fu)/(plasma ng/ml x plasma fu).
For determination of the plasma concentration-time profile, compounds were formulated in methyl cellulose and administered as a 3 mg/kg PO dose to male C57BL/6 mouse or SD rat (n = 2). For the same determination, compounds were formulated in HP-β-CD and administered as a 0.1 mg/kg IV dose to male beagle dog (n = 2).
Plasma samples originating from in vivo studies were analyzed by electrospray ionization using a Q-TRAP 5500 (AB Sciex) that was coupled to a Prominence UFLC XR (Shimadzu Corporation). […]

[2] = rat plasma protein binding (equilibrium dialysis); format: in vitro ADME; conditions: pH 7.4, read-out: rat plasma fu
Experimental: In vitro Plasma protein binding and Brain homogenate binding: Determination of fraction unbound (f u) in plasma was conducted in vitro via equilibrium dialysis using HTDialysis (HTD) membrane plates. The top half of the plate was filled with 100 uL of Dubelco’s Phosphate Buffered Saline, pH 7.4 (DPBS). Compounds were diluted into plasma from each species (5 µM final concentration), which was aliquoted in triplicate to the ‘bottom half’ of the prepared HTD plate wells. The HTD plate was sealed and incubated for 6 hours at 37 °C. Following incubation, each well (both top and bottom halves) were transferred (20 µL) to the corresponding wells of a 96-shallow-well (V-bottom) plate. The daughter plates were then matrix-matched (DPBS side wells received equal volume of plasma, and plasma side wells received equal volume of DPBS), and extraction solution (120 µL; acetonitrile containing 50 nM carbamazepine as IS) was added to all wells of both daughter plates to precipitate protein and extract test article. The plates were then sealed and centrifuged (3500 rcf) for 10 minutes at ambient temperature. Supernatant (60 µL) from each well of the daughter plates was then transferred to the corresponding wells of new daughter plates (96-shallow-well, V bottom) containing water (Milli-Q, 60 µL/well), and the plates were sealed in preparation for LC-MS/MS analysis (see LC-MS/MS analysis method below).
The unbound fraction (f u) was calculated following the equation below, and mean values for each species were calculated from 3 replicates. […]
Fraction unbound for both plasma and brain samples was determined using Equation 4.
Equation 4 Determination of fraction unbound in plasma. […]

[3] = intravenous, 0.2 mg/kg, rat cassette PK study

Compound | Kp at 2 h [1] | Kp uu at 2 h [1] | fraction unbound at 6 h, 5 µM [2] | Kp at 15 min [1, 3] | Kp uu at 15 min [1, 3] | Kp uu ([1]; rat, dosing not given)
Cc1cc(OC(F)(F)F)ccc1CNC(=O)c1ccc2ncnn2c1 [Compound 19a] | 0.5 | 0.2 | 0.075 | – | – | –
O=C(NCc1ccc(OC(F)(F)F)cc1F)c1ccc2ncnn2c1 [Compound 19b] | 0.37 | 0.38 | 0.075 | – | – | –
O=C(NCc1ccc(OC(F)(F)F)cc1Cl)c1ccc2nncn2c1 [Compound 20] | – | – | – | – | – | 0.078

Next, values leading:

Kp at 2 h [1] | Kp uu at 2 h [1] | fraction unbound at 6 h, 5 µM [2] | Kp at 15 min [1, 3] | Kp uu at 15 min [1, 3] | Kp uu ([1]; rat, dosing not given) | Compound
0.26 | 0.15 | 0.027 | – | – | – | CS(=O)(=O)Nc1ccc(C(=O)NCc2ccc(Cl)cc2Cl)cc1 [Compound 13]
– | – | – | 0.2 | 0.36 | – | O=C(NCc1ccc(Br)cc1Cl)c1ccc(-c2ncn[nH]2)cc1 [Compound 14a]
